# Reference: PubChem BioAssay AID330 (DTP/NCI, 2004)
# Several values for one entry are separate records, joined by “and”; a condition that tells them apart may be missing. Equal values may be shown once. Toxic doses and inconclusive results are not listed.
# Test system: P388 leukemia ip, CD2F1 mice, survival T/C
# Assay: NCI In Vivo Anticancer Drug Screen. Data for tumor model P388 Leukemia (intraperitoneal) in CD2F1 (CDF1) mice
# Conditions: endpoint: median survival time, higher = longer survival
# Summary of the method: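 Mice carrying the transplanted tumor received test compound or vehicle. Survival was recorded in each group, and the value is the treated-group measurement divided by that of the vehicle-treated control group.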
# [1] = dose: 50.0 mg/kg/injection, schedule: Q01DX005 (ip), vehicle: Klucel (hydroxypropylcellulose) (HPC)
# [2] = dose: 100.0 mg/kg/injection, schedule: Q01DX005 (ip), vehicle: Klucel (hydroxypropylcellulose) (HPC)
# [3] = dose: 200.0 mg/kg/injection, schedule: Q01DX005 (ip), vehicle: Klucel (hydroxypropylcellulose) (HPC)
smiles,measurement,setting,value
COC(=O)C(C)NC(=O)c1c2nc3c(C(=O)NC(C)C(=O)OC)ccc(C)c3oc-2c(C)c(=O)c1N (stereo not drawn),T/C,"dose: 3.12 mg/kg/injection, schedule: Q01DX005 (ip), vehicle: distilled water + Tween-80",100 % of control
same,T/C,"dose: 3.12 mg/kg/injection, schedule: Q01DX005 (ip), vehicle: saline with Tween-80",98 % of control
same,T/C,"dose: 6.25 mg/kg/injection, schedule: Q01DX005 (ip), vehicle: distilled water + Tween-80",100 % of control and 102 % of control
same,T/C,"dose: 6.25 mg/kg/injection, schedule: Q01DX005 (ip), vehicle: saline with Tween-80",97 % of control
same,T/C,"dose: 12.5 mg/kg/injection, schedule: Q01DX005 (ip), vehicle: distilled water + Tween-80",96 % of control
same,T/C,"dose: 12.5 mg/kg/injection, schedule: Q01DX005 (ip), vehicle: saline with Tween-80",87 % of control and 92 % of control
same,T/C,"dose: 25.0 mg/kg/injection, schedule: Q01DX005 (ip), vehicle: distilled water + Tween-80",89 % of control and 94 % of control
same,T/C,"dose: 50.0 mg/kg/injection, schedule: Q01DX005 (ip), vehicle: distilled water + Tween-80",90 % of control
same,T/C,"dose: 50.0 mg/kg/injection, schedule: Q01DX005 (ip), vehicle: saline with Tween-80",89 % of control
same,T/C,"dose: 100.0 mg/kg/injection, schedule: Q01DX005 (ip), vehicle: saline with Tween-80",89 % of control
same,T/C,"dose: 200.0 mg/kg/injection, schedule: Q01DX005 (ip), vehicle: saline with Tween-80",92 % of control
NOCc1csc(N)n1,T/C,"dose: 75.0 mg/kg/injection, schedule: Q01DX009 (ip), vehicle: saline",91 % of control
same,T/C,"dose: 150.0 mg/kg/injection, schedule: Q01DX009 (ip), vehicle: saline",91 % of control
same,T/C,"dose: 300.0 mg/kg/injection, schedule: Q01DX009 (ip), vehicle: saline",91 % of control
C=C=CON1CCCCC1,T/C,"dose: 12.5 mg/kg/injection, schedule: Q01DX005 (ip), vehicle: saline",99 % of control
same,T/C,"dose: 25.0 mg/kg/injection, schedule: Q01DX005 (ip), vehicle: saline",104 % of control
same,T/C,"dose: 50.0 mg/kg/injection, schedule: Q01DX005 (ip), vehicle: saline",100 % of control and 104 % of control
CN(C)c1cc(N(C)C)c2ccccc2n1,T/C,"dose: 12.5 mg/kg/injection, schedule: Q01DX009 (ip), vehicle: Klucel (hydroxypropylcellulose) (HPC)",102 % of control
same,T/C,"dose: 25.0 mg/kg/injection, schedule: Q01DX009 (ip), vehicle: Klucel (hydroxypropylcellulose) (HPC)",106 % of control
same,T/C,"dose: 100.0 mg/kg/injection, schedule: Q01DX009 (ip), vehicle: Klucel (hydroxypropylcellulose) (HPC)",97 % of control
CS(C)=O.CS(C)=O.CS(C)=O.CS(C)=O.[Cl][Ru][Cl],T/C,"dose: 60.0 mg/kg/injection, schedule: Q01DX005 (ip), vehicle: Klucel (hydroxypropylcellulose) (HPC)",105 % of control
same,T/C,"dose: 100.0 mg/kg/injection, schedule: Q04DX003 (ip), vehicle: saline",97 % of control
same,T/C,"dose: 120.0 mg/kg/injection, schedule: Q01DX005 (ip), vehicle: Klucel (hydroxypropylcellulose) (HPC)",101 % of control
same,T/C,"dose: 200.0 mg/kg/injection, schedule: Q04DX003 (ip), vehicle: saline",99 % of control
same,T/C,"dose: 240.0 mg/kg/injection, schedule: Q01DX005 (ip), vehicle: Klucel (hydroxypropylcellulose) (HPC)",107 % of control
same,T/C,"dose: 400.0 mg/kg/injection, schedule: Q04DX003 (ip), vehicle: saline",92 % of control
COc1cccc2c1C(=O)c1c(O)c3c(c(O)c1C2=O)C[C@@](O)(C(C)O)C[C@@H]3OC1CC(N2CCC(OC)CC2)C(O)C(C)O1 (stereo partly drawn),T/C,"dose: 0.78 mg/kg/injection, schedule: Q04DX003 (ip), vehicle: water",112 % of control
same,T/C,"dose: 1.56 mg/kg/injection, schedule: Q04DX003 (ip), vehicle: water",114 % of control
same,T/C,"dose: 3.12 mg/kg/injection, schedule: Q04DX003 (ip), vehicle: water",111 % of control and 117 % of control
same,T/C,"dose: 6.25 mg/kg/injection, schedule: Q04DX003 (ip), vehicle: water",188 % of control
same,T/C,"dose: 12.5 mg/kg/injection, schedule: Q04DX003 (ip), vehicle: water",158 % of control and 240 % of control
same,T/C,"dose: 25.0 mg/kg/injection, schedule: Q04DX003 (ip), vehicle: water",118 % of control
CCOc1ccc(-n2c(=O)c(N=Nc3ccccc3Cl)c(O)n(-c3ccc(Br)cc3)c2=S)cc1,T/C,"dose: 100.0 mg/kg/injection, schedule: Q04DX002 (ip), vehicle: saline with Tween-80",90 % of control
same,T/C,"dose: 200.0 mg/kg/injection, schedule: Q04DX002 (ip), vehicle: saline with Tween-80",94 % of control
same,T/C,"dose: 400.0 mg/kg/injection, schedule: Q04DX002 (ip), vehicle: saline with Tween-80",87 % of control
CC(C)C(NC(=O)C(Cl)Cl)C(=O)O (stereo not drawn),T/C,[1],96 % of control
same,T/C,[2],94 % of control
same,T/C,[3],96 % of control
CCCn1cnc2c(sc3ccccc32)c1=O,T/C,[1],101 % of control
same,T/C,[2],93 % of control
same,T/C,[3],93 % of control
CCOC(=O)C1=CNc2c(C#N)cnn2C12C(=O)Oc1ccc(OC)cc12 (stereo not drawn),T/C,"dose: 25.0 mg/kg/injection, schedule: Q01DX005 (ip), vehicle: Klucel (hydroxypropylcellulose) (HPC)",109 % of control
same,T/C,[1],105 % of control
same,T/C,[2],105 % of control
same,T/C,[3],105 % of control
COc1ccccc1C(c1cc2c(cc1O)OCO2)N1CCOCC1 (stereo not drawn),T/C,"dose: 60.0 mg/kg/injection, schedule: Q01DX005 (ip), vehicle: saline with Tween-80",117 % of control
same,T/C,"dose: 120.0 mg/kg/injection, schedule: Q01DX005 (ip), vehicle: saline with Tween-80",115 % of control
same,T/C,"dose: 240.0 mg/kg/injection, schedule: Q01DX005 (ip), vehicle: saline with Tween-80",122 % of control
